16 compounds from PMC10005056, “Design and Synthesis of New Acyl Urea Analogs as Potential σ1R Ligands” (Molecules, 2023) can be followed below.

The target of one data set is σ1R (Homo sapiens, UniProt Q99720). Description: In vitro σ1R binding assay (radioligand displacement, NIMH PDSP). The conditions noted are these: read-out: In Vitro σ1R Affinity (Ki). An excerpt: Online Molinspiration and Osiris property explorer were used to calculate/predict drug-like molecular properties for the target compounds. These studies involved retrieving the σ1R crystal structure (5HK1) with embedded ligand (PD144418), preparation (e.g., H2O and ligand removal), and docking the target molecules via the PyRx and AutoDock Vina suite. […] Synthetically, a variety of approaches for obtaining acyl ureas were reviewed and the most feasible conditions were attempted with limited success—our goal was to obtain our compounds using the shortest and most cost-effective approach. […] We therefore slightly modified Stokes’ conditions by preparing the N-(phenoxycabonyl)benzamide intermediate from phenol and benzoyl isocynate. Coupling the intermediate with amines or amides or thioamides via simple nucleophilic displacement afforded our series of N-acyl ureas plus N-acyl thioureas (Table 1) in good yields (>64%). To confirm our pharmacological assumptions regarding these molecules behaving like PD144418, the compounds were sent to the National Institute of Mental Health’s Psychoactive Drug Screening Program and evaluated in radioligand displacement assays to determine their in vitro σ1R affinities or Ki values.
Sequence of σ1R (Q99720 whole entry, species assumed): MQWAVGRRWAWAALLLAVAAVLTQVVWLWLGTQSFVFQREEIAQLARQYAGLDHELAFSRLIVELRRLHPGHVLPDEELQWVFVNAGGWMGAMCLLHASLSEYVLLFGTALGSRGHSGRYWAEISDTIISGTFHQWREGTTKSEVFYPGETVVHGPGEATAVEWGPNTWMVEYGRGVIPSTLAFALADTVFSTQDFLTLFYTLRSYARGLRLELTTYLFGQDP
Computational (kcal/mol) versus in vitro (μM, from the National Institute of Mental Health Psychoactive Drug Screening Program or NIMH-PDSP [https://pdsp.unc.edu/pdspweb/ (accessed 28 February 2023)] σ1R binding affinity data are illustrated in Table 4.
Sigma-1 binding affinity experiments (Ki determinations) were conducted at the National Institute of Mental Health’s Psychoactive Drug Screening Program (NIMH PDSP). Sigma-1 receptor binding assay protocol details (radioligand displacement conditions, etc.) are available at https://pdsp.unc.edu/pdspweb/content/PDSP%20Protocols%20II%202013-03-28.pdf (accessed 28 February 2023).
(Displacement assays read how much labelled ligand stays bound in the presence of the test substance.)

pKi: −log10 of the molar value.

As to `O=C(NC(=O)c1ccccc1)Nc1nc2ccccc2o1` [Compound 10, N-(Benzo[d]oxazol-2-ylcarbamoyl)benzamide], the melting point (usually the temperature of the solid-liquid transition) was in the range of 180 to 182 °C. Moreover, the pKi (commonly the negative decadic logarithm of the Ki, by convention in mol/L) on σ1R was 5.66. Compound `CC(C)(C)OC(=O)N1CCC(NC(=O)NC(=O)c2ccccc2)CC1` [Compound 9, Tert-butyl 4-(3-benzoylureido)piperidine-1-carboxylate] returned a melting point of 164 to 166 °C. Further, the pKi at σ1R is less than 5.00.

Take `Cc1cc(C)nc(NC(=O)NC(=O)c2ccccc2)n1` [Compound 13, N-((4,6-Dimethylpyrimidin-2-yl)carbamoyl)benzamide]: the melting point is 183 to 185 °C. The pKi at σ1R was less than 5.00. For the compound `O=C(NC(=S)Nc1cc2ccccc2cn1)c1ccccc1` [Compound 16, N-(Isoquinolin-3-ylcarbamothioyl)benzamide], the melting point was in the range of 162 to 165 °C. Further, the pKi at σ1R is less than 5.00. `Cc1c(C)c2c(c(C)c1O)CCC(C)(C(=O)NC(=O)NC(=O)c1ccccc1)O2` (stereo not shown) [Compound 11, N-(Benzoylcarbamoyl)-6-hydroxy-2,5,7,8-tetramethylchromane-2-carboxamide] showed a melting point of 155 to 157 °C. Moreover, the pKi on σ1R is less than 5.00.

Take `COc1cc(C(=S)NC(=O)NC(=O)c2ccccc2)ccc1O` [Compound 12, N-((4-Hydroxy-3-methoxyphenylcarbonothioyl)carbamoyl) benzamide]: the melting point is 176 to 177 °C. For the same compound, the pKi on σ1R is 5.02. For the compound `Cc1ccc(N2CCN(C(=O)NC(=O)c3ccccc3)CC2)cc1` [Compound 8, N-Benzoyl-4-(p-tolyl)piperazine-1-carboxamide], the melting point lay within 158 to 160 °C. The pKi on σ1R was less than 5.00. In turn, `O=C(NC(=O)c1ccccc1)Nc1ccc2[nH]ccc2c1` [Compound 2] came in with a melting point of 220 to 223 °C. Also, at σ1R, the pKi is less than 5.00. For `O=C(NC(=O)c1ccccc1)Nc1cnc2ccccc2c1` [Compound 14, N-(Quinolin-3-ylcarbamoyl)benzamide], the melting point is 233 to 236 °C. In addition, the pKi at σ1R is less than 5.00.

In turn, `O=C(NC(=O)c1ccccc1)NC(=S)c1ccccn1` [Compound 3, N-((Pyridine-2-carbonothioyl)carbamoyl)benzamide] yielded a melting point of 180 to 182 °C. The pKi at σ1R was less than 5.00.

For `O=C(NC(=O)c1ccccc1)Nc1cc2ccccc2cn1` [Compound 15, N-(Isoquinolin-3-ylcarbamoyl)benzamide], the melting point lay in the range of 237 to 238 °C. At σ1R, the pKi was less than 5.00.

With `O=C(NC(=O)N1CCN(c2ncccn2)CC1)c1ccccc1` [Compound 5, N-Benzoyl-4-(pyrimidin-2-yl)piperazine-1-carboxamide], the melting point lay in the range of 145 to 147 °C. The negative-log Ki (pKi) on σ1R is less than 5.00. Turning to `Cc1cc2cc(NC(=O)NC(=O)c3ccccc3)ccc2[nH]1` [Compound 4, N-((2-Methyl-1H-indol-5-yl)carbamoyl)benzamide], the melting point was in the range of 209 to 211 °C. Moreover, the pKi on σ1R was less than 5.00. On the same counts, the results for `O=C(NC(=O)N1CCN(c2ccncc2)CC1)c1ccccc1` [Compound 6, N-Benzoyl-4-(pyridin-4-yl)piperazine-1-carboxamide] are 161 to 163 °C and less than 5.00. `O=C(NC(=O)N1CCC(O)CC1)c1ccccc1` [Compound 7] displayed a melting point of 170 to 172 °C. In addition, at σ1R, the pKi is less than 5.00.

Turning to `Cc1cc(NC(=O)NC(=O)c2ccccc2)no1` [Compound 1, N-((5-Methylisoxazol-3-yl)carbamoyl)benzamide], the pKi on σ1R is less than 5.00.
